In paper PMC10712729, “A Phase I Trial of the Dual MET Kinase/OCT-2 Inhibitor OMO-1 in Metastatic Solid Malignancies Including MET Exon 14 Mutated Lung Cancer” (The Oncologist, 2023):
Entries after “also recorded” stand apart in the source; their conditions may differ.

Columns and labels:
phosphorylated MET = biological target: T1, phosphorylated MET (Homo sapiens, UniProt P08581, DEL963-1009); assay: Paired biopsy analysis, total and phosphorylated MET by immunohistochemistry; type: in vivo; conditions: one patient, NSCLC with MET exon 14 skipping mutation, 200 mg BID
T1 construct: from tissue; host or cells: paired tumour biopsies (baseline and on-treatment) of an NSCLC patient
Procedure: (§1) Analysis was performed using PKSolver to define Cmax, trough concentration (Ctrough), AUC∞, AUC0-last, Vd, clearance, elimination half-life (t½), and Tmax of OMO-1.[24] In the paired biopsy analysis, expression of total MET and phosphorylated MET was performed by immunohistochemistry.

[1] = Pharmacokinetics of OMO-1 in plasma, Module 1 Part A; type: in vivo, human
Procedure: (§2) The starting dose was 100 mg BID.
as §1

OCT-2 [2] = biological target: T2, OCT-2 (Homo sapiens, UniProt O15244); assay: Renal function markers (creatinine, Cystatin C, KIM1) as on-target OCT-2 inhibition; type: in vivo
T2 construct: from tissue; host or cells: patients in vivo (endogenous transporter; serum, plasma and urine markers measured)
T2 sequence (O15244 1-555): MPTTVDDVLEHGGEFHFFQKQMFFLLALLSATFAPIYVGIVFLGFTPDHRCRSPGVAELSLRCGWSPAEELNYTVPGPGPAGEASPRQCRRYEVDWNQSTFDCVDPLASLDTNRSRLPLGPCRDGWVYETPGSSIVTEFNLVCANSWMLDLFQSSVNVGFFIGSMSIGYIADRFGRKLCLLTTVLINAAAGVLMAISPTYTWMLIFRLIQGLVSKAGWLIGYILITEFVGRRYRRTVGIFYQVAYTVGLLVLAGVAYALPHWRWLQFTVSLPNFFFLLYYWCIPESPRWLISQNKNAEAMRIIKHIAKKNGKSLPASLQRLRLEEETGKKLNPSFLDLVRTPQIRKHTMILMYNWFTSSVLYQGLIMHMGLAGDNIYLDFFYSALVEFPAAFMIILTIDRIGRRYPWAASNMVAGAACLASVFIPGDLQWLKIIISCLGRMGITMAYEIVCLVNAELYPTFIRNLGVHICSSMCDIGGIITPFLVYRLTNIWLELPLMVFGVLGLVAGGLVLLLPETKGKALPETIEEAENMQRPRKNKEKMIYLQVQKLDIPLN
Procedure: as §2

[3] = tested on: MET amplified NSCLC or other MET positive solid tumors; assay: Preliminary efficacy by RECIST v1.1, Module 1 Part B cohort 2 (MET basket); type: in vivo, human; conditions: 5/5 patients, 200 or 250 mg BID
Procedure: as §2
(§3) Safety analyses were descriptive.

METex14-positive NSCLC = assay: Preliminary efficacy by RECIST v1.1, Module 1 Part B cohort 1; type: in vivo, human; conditions: OMO-1 monotherapy 200 or 250 mg BID
Procedure: as §2, §3

OCT-2 [4] = biological target: T2, OCT-2; assay: Plasma tryptophan and kynurenine levels to explore OCT-2 inhibition; type: in vivo
Procedure: as §2

[5] = tested on: MET-activated tumor models; conditions: preclinical ref 21; cited from earlier work
[6] = set-up: method as in doi:10.1158/1538-7445.am2015-ct309; conditions: healthy human volunteers ref 26; cited from earlier work
[7] = tested on: organic cation transporter 2 (OCT-2); set-up: method as in PMID 14576340; conditions: cited from earlier work
[8] = tested on: EGFR mutated NSCLC with acquired MET amplification; type: in vivo, human; conditions: one patient, 200 mg BID with EGFR TKI; led to interruption
Excerpt: Module 2 (OMO-1 in combination with EGFR TKI) investigated the preliminary efficacy of OMO-1 in patients with activating EGFR mutated NSCLC and an acquired MET amplification after EGFR TKI treatment.

Which “phosphorylated MET in on-treatment biopsy” value (phosphorylated MET) does the source give for `FC(F)(c1ccc2ncccc2c1)c1nnc2ccc(-c3ccncc3)nn12` [OMO-1] here?
The value was “near-complete inhibition”.

What about the “total MET levels in on-treatment biopsy” value (phosphorylated MET) of the same molecule?
Its value is “without affecting total MET levels”.

What about the “plasma exposure as measured by AUC(0-8 h), dose proportionality” value ([1]; 100 to 400 mg BID) of the same molecule?
Its value is “dose-proportional without accumulation”.

What about the “AUC(0-8 h)” value ([1]; RP2D of 250 mg BID) of the same molecule?
Its value is 5684 ng·h/mL.

And the Cmax ([1]; RP2D of 250 mg BID)?
The Cmax was 1372 ng/mL.

And the T½ ([1]; oral, patients)?
Its T½ is 2.5 to 3 h.

And the “median Tmax” value ([1]; range across the dose escalation cohorts, second daily dose 4-5 h after first)?
Its value is 5 to 7.8 h.

What about the “cystatin C and KIM-1, additional markers for renal function” value (OCT-2 [2]; monotherapy OMO-1) of the same molecule?
The value was “did also not identify any significant renal function issues”.

What about the “overall mean creatinine levels” value (OCT-2 [2]; throughout the study) of the same molecule?
The value was “within the normal ranges”.

What about the clinical benefit [3] of the same molecule?
The clinical benefit was “No clinical benefit of any length; also recorded: no clinical efficacy”.

What about the “clinical benefit duration of at least 8 weeks” value (METex14-positive NSCLC) of the same molecule?
The value was 5/10.

And the partial response (METex14-positive NSCLC; RECIST v.1.1)?
The partial response was “No patients; also recorded: no partial response”.

What about the median kynurenin level (OCT-2 [4]; 8 h post-dose, IQR 396-559, pre-dose 509 ng/mL, P = .57) of the same molecule?
The median kynurenin level was 471 ng/mL.

And the mean kyn/trp ratio (OCT-2 [4]; 8 h post-dose, pre-dose 57, P < .001)?
Its mean kyn/trp ratio is 49.

And the “mean tryptophan plasma level” value (OCT-2 [4]; cycle 1 day 1, 8 h post-dose, pre-dose 9475 ng/mL, P = .014, 30 patients Module 1)?
The value was 10 605 ng/mL.

And the “changes in plasma tryptophan levels and kyn/trp ratio, dependence on dose or Cmax” value (OCT-2 [4]; in vivo)?
Its value is “not dose or Cmax dependent”.

And the tumor growth [5]?
The tumor growth was “complete inhibition of tumor growth”.

What about the renal toxicity [6] of the same molecule?
The renal toxicity was “no renal toxicity was observed”.

What about the “inhibition of OCT-2” value [7] of the same molecule?
The value was “potent inhibitor”.

And the “serum Cystatin C increase from baseline” value [8]?
Its value is over 1.5 fold.
